Results taken from ChEMBL document CHEMBL1201862, “PubChem BioAssay data set” (2004).
The source made the active and inactive calls.

Assays:
[1] = molecular target: Sphingosine 1-phosphate receptor 1 (Homo sapiens, UniProt P21453); assay type: functional;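 also: Tango beta-arrestin reporter U2OS cells stimulated with S1P near its EC80; inhibitor potency meaning antagonism of receptor activation by the natural agonist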
[2] = test system: CHO; assay: CHO cell viability loss, potency – luminescence, cytotoxicity control for TLR9-MyD88 binding inhibitor project, dose response (AID 588339); assay type: functional, cell-based, hamster; conditions: Cricetulus griseus;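 also: CHO cells stably coexpressing TLR9 and MyD88 fusions from primary screen; compound exposure lasted 48 hours before viability readout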
[3] = molecular target: T1, Protein RecA (Mycobacterium tuberculosis, UniProt P9WHJ3); assay: Fluorescence Cell-Free Homogeneous Dose Retest to Identify Inhibitors of RecA-Intein Splicing Activity. [Related pubchem assays (depositor defined):AID2097, AID2223, AID489010, AID492950]; assay type: functional
T1 sequence (P9WHJ3 whole entry): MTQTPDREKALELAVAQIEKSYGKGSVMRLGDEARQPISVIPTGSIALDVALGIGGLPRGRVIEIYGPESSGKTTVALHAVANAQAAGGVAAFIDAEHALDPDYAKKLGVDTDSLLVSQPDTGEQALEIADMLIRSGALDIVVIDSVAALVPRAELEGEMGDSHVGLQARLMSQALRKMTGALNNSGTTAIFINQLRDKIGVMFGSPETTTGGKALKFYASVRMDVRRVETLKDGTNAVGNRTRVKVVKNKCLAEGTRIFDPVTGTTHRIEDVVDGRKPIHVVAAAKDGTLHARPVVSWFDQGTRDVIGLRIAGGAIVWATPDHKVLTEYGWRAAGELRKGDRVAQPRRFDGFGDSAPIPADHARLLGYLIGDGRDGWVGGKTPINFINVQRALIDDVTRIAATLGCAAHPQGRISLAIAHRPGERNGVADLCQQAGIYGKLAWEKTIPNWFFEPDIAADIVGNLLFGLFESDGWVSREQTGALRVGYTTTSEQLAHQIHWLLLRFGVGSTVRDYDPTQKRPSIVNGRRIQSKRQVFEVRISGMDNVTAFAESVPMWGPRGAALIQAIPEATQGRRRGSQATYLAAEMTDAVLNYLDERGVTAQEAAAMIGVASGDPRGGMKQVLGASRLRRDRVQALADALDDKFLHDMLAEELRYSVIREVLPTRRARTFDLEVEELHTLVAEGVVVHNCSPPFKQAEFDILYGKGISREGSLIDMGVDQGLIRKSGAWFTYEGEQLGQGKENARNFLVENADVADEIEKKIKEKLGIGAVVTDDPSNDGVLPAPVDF

[4] = molecular target: T2, Replicative DNA helicase DnaB (Mycobacterium tuberculosis, UniProt P9WMR3); assay: DnaB intein splicing inhibitors, dose response, biochemical, cell-free fluorescence (AID 449749); assay type: functional
T2 sequence (P9WMR3 whole entry): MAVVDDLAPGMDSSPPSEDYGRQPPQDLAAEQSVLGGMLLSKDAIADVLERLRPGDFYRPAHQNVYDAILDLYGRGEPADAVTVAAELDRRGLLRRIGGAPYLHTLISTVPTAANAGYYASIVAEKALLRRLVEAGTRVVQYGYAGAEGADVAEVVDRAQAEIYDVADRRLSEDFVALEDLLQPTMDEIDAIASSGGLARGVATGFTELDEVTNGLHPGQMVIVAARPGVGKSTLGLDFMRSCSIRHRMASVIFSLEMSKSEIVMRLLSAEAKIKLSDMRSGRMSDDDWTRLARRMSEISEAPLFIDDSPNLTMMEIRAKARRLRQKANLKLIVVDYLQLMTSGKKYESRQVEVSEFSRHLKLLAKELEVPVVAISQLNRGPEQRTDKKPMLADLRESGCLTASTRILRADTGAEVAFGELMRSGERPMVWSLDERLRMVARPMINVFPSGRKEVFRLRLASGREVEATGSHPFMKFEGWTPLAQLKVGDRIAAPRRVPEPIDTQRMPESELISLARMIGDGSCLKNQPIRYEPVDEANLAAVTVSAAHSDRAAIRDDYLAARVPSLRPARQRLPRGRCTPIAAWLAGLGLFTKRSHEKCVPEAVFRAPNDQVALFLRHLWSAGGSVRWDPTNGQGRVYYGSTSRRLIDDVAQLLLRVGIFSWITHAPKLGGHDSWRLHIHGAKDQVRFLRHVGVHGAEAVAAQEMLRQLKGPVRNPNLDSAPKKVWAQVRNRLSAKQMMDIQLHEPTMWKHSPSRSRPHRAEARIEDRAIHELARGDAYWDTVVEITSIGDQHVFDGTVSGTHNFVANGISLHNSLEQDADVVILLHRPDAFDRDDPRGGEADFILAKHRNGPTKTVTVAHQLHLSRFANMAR

[5] = activation of miR-122 Renilla sensor silencing – cell-based, Huh7 psiCHECK-miR122, Renilla luciferase, cherry-picked, dose response (AID 651956); assay type: functional;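 also: huh7 hepatoma cells stably carrying a psiCHECK-2 miR-122 sensor plasmid; renilla luciferase signal reporting endogenous miR-122 activity after 48 h compound exposure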
[6] = molecular target: Focal adhesion kinase 1 (Homo sapiens, UniProt Q05397); assay type: functional;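 also: measured as one member of a kinome panel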
Chain of Focal adhesion kinase 1 (Q05397 whole entry): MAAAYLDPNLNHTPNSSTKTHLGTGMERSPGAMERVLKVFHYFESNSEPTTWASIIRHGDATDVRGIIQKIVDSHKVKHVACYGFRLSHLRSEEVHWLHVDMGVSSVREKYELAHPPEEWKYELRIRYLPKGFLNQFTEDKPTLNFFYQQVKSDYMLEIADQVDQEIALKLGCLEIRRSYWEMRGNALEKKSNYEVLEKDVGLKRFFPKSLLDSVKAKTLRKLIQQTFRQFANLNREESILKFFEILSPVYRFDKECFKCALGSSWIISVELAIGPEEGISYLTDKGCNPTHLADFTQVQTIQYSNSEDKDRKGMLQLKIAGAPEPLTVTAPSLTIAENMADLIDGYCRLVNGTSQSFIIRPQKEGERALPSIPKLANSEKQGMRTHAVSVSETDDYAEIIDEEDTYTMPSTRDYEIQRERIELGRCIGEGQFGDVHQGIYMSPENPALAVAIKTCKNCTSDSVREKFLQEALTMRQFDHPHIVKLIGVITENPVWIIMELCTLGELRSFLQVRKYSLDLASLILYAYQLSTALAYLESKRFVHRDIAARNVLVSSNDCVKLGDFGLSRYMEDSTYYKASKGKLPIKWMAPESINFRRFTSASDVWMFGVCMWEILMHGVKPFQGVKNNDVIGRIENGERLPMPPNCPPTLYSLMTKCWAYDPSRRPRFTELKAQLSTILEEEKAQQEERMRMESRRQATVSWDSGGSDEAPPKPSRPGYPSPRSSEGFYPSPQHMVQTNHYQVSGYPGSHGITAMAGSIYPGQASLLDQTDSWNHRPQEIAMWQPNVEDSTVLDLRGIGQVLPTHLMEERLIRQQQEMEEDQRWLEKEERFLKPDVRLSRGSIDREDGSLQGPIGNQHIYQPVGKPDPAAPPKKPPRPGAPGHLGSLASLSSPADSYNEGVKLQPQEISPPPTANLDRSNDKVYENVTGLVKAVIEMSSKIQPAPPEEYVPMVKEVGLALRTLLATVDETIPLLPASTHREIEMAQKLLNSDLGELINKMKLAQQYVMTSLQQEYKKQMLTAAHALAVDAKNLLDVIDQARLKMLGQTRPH

Chain of Sphingosine 1-phosphate receptor 1 (P21453 whole entry, the tested form may be a part): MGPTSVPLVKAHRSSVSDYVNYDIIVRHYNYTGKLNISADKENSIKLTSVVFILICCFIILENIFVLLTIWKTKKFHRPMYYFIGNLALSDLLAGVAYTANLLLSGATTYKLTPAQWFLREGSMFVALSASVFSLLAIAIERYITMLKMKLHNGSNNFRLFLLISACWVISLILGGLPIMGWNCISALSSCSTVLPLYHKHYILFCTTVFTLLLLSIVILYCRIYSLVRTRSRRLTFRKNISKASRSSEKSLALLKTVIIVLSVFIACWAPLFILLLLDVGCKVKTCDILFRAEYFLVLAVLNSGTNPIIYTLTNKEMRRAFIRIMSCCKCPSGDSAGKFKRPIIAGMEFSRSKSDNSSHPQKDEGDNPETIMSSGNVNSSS

| Compound | IC50 [1] | IC50 [2] | EC50 [3] | AC50 [4] | AC50 [5] | Ki [6] |
| --- | --- | --- | --- | --- | --- | --- |
| Cc1ccc(C(=O)OCn2ncc(Cl)c(Cl)c2=O)cc1 | 10.6 µM (not active) | 1.53 µM (active) | 0.924 µM (active) | 3.66 µM (active) | 9.52 µM (active) |  |
| O=C(Nc1cccc(C2Nc3ccc4ccccc4c3C3C=CCC32)c1)c1ccc(F)cc1 (stereo unspecified) |  |  |  |  |  | > 6.31 µM (inactive) |
